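The compound was tested at five concentrations on cells cultured in 96-well plates, with a 48-hour exposure period. At the GI50, growth is halved.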 Calls of active or inactive are those of the source. No stated cut-off is given here; in the data, active = GI50 up to about 1.1 µM and inactive = higher.
Tests used:
Assay in all cases: DTP human tumour cell line panel, 48 h
[1] = tested on: 786-0
[2] = tested on: A498
[3] = tested on: A549
[4] = tested on: ACHN
[5] = tested on: BT-549
[6] = tested on: CAKI-1
[7] = tested on: CCRF-CEM
[8] = tested on: COLO 205
[9] = tested on: DU-145
[10] = tested on: EKVX
[11] = tested on: HCC 2998
[12] = tested on: HCT-116
[13] = tested on: HCT-15
[14] = tested on: HL-60
[15] = tested on: HOP-62
[16] = tested on: HOP-92
[17] = tested on: HT-29
[18] = tested on: Hs-578T
[19] = tested on: IGROV-1
[20] = tested on: K562
[21] = tested on: KM12
[22] = tested on: LOX IMVI
[23] = tested on: M14
[24] = tested on: MCF7
[25] = tested on: MDA-MB-231
[26] = tested on: MDA-MB-435
[27] = tested on: MDA-N
[28] = tested on: MOLT-4
[29] = tested on: Malme-3M
[30] = tested on: NCI-H226
[31] = tested on: NCI-H23
[32] = tested on: NCI-H460
[33] = tested on: NCI/ADR-RES
[34] = tested on: OVCAR-3
[35] = tested on: OVCAR-4
[36] = tested on: OVCAR-5
[37] = tested on: OVCAR-8
[38] = tested on: PC-3
[39] = tested on: RPMI-8226
[40] = tested on: RXF 393
[41] = tested on: SF-268
[42] = tested on: SF-295
[43] = tested on: SF-539
[44] = tested on: SK-MEL-28
[45] = tested on: SK-MEL-2
[46] = tested on: SK-MEL-5
[47] = tested on: SK-OV-3
[48] = tested on: SN12C
[49] = tested on: SNB-19
[50] = tested on: SNB-75
[51] = tested on: SR
[52] = tested on: SW-620
[53] = tested on: T47D
[54] = tested on: TK-10
[55] = tested on: U-251
[56] = tested on: UACC-257
[57] = tested on: UACC-62
[58] = tested on: UO-31
[59] = tested on: NCI-H522

## N=C(N)NS(=O)(=O)c1ccc(N/N=C2/CCOC2=O)cc1
[1]
  GI50: > 100 µM (inactive)
[2]
  GI50: > 100 µM (inactive)
[3]
  GI50: > 100 µM (inactive)
[4]
  GI50: 63.5 µM (inactive)
[5]
  GI50: > 100 µM (inactive)
[6]
  GI50: > 100 µM (inactive)
[7]
  GI50: > 100 µM (inactive)
[8]
  GI50: > 100 µM (inactive)
[9]
  GI50: > 100 µM (inactive)
[10]
  GI50: > 100 µM (inactive)
[11]
  GI50: > 100 µM (inactive)
[12]
  GI50: > 100 µM (inactive)
[13]
  GI50: > 100 µM
[14]
  GI50: > 100 µM (inactive)
[15]
  GI50: 26.6 µM (inactive)
[16]
  GI50: 63.2 µM (inactive)
[17]
  GI50: > 100 µM (inactive)
[18]
  GI50: 57.8 µM (inactive)
[19]
  GI50: > 100 µM (inactive)
[20]
  GI50: 45.3 µM (inactive)
[21]
  GI50: > 100 µM (inactive)
[22]
  GI50: > 100 µM (inactive)
[23]
  GI50: > 100 µM (inactive)
[24]
  GI50: > 100 µM (inactive)
[25]
  GI50: > 100 µM (inactive)
[26]
  GI50: > 100 µM (inactive)
[27]
  GI50: > 100 µM (inactive)
[28]
  GI50: 2.95 µM (inactive)
[29]
  GI50: > 100 µM (inactive)
[30]
  GI50: > 100 µM (inactive)
[31]
  GI50: > 100 µM (inactive)
[32]
  GI50: > 100 µM (inactive)
[33]
  GI50: > 100 µM (inactive)
[34]
  GI50: > 100 µM (inactive)
[35]
  GI50: > 100 µM (inactive)
[36]
  GI50: > 100 µM (inactive)
[37]
  GI50: 49.5 µM (inactive)
[38]
  GI50: 80.4 µM (inactive)
[39]
  GI50: > 100 µM (inactive)
[40]
  GI50: > 100 µM (inactive)
[41]
  GI50: 45.1 µM (inactive)
[42]
  GI50: 49.7 µM (inactive)
[43]
  GI50: > 100 µM (inactive)
[44]
  GI50: > 100 µM (inactive)
[45]
  GI50: > 100 µM (inactive)
[46]
  GI50: > 100 µM (inactive)
[47]
  GI50: 40.6 µM (inactive)
[48]
  GI50: 65.5 µM (inactive)
[49]
  GI50: > 100 µM (inactive)
[50]
  GI50: 21.7 µM (inactive)
[51]
  GI50: 70.6 µM (inactive)
[52]
  GI50: > 100 µM (inactive)
[53]
  GI50: 49.1 µM (inactive)
[54]
  GI50: > 100 µM (inactive)
[55]
  GI50: 41.2 µM (inactive)
[56]
  GI50: > 100 µM (inactive)
[57]
  GI50: > 100 µM (inactive)
[58]
  GI50: > 100 µM (inactive)

## COc1ccc2c(c1)CCc1c-2n(CCN2CCOCC2)c2ccc(OC)cc12
[1]
  GI50: 82.8 µM (inactive)
[2]
  GI50: > 100 µM (inactive)
[3]
  GI50: 60.3 µM (inactive)
[4]
  GI50: 82.2 µM (inactive)
[5]
  GI50: > 100 µM (inactive)
[6]
  GI50: > 100 µM (inactive)
[7]
  GI50: 16.4 µM (inactive)
[8]
  GI50: 32.8 µM (inactive)
[9]
  GI50: > 100 µM (inactive)
[11]
  GI50: 3.92 µM (inactive)
[12]
  GI50: 63.2 µM (inactive)
[13]
  GI50: 41 µM
[15]
  GI50: > 100 µM (inactive)
[16]
  GI50: > 100 µM (inactive)
[17]
  GI50: 16.1 µM (inactive)
[18]
  GI50: 61.7 µM (inactive)
[19]
  GI50: 80.2 µM (inactive)
[20]
  GI50: 14.8 µM (inactive)
[21]
  GI50: 18.8 µM (inactive)
[23]
  GI50: 28 µM (inactive)
[24]
  GI50: 85.5 µM (inactive)
[25]
  GI50: > 100 µM (inactive)
[26]
  GI50: > 100 µM (inactive)
[27]
  GI50: 94.2 µM (inactive)
[28]
  GI50: 12.5 µM (inactive)
[29]
  GI50: 75.2 µM (inactive)
[30]
  GI50: 25.5 µM (inactive)
[31]
  GI50: > 100 µM (inactive)
[32]
  GI50: 40.5 µM (inactive)
[59]
  GI50: > 100 µM (inactive)
[33]
  GI50: > 100 µM (inactive)
[34]
  GI50: > 100 µM (inactive)
[35]
  GI50: > 100 µM (inactive)
[36]
  GI50: > 100 µM (inactive)
[37]
  GI50: > 100 µM (inactive)
[38]
  GI50: 63.2 µM (inactive)
[39]
  GI50: 63.5 µM (inactive)
[40]
  GI50: > 100 µM (inactive)
[41]
  GI50: > 100 µM (inactive)
[42]
  GI50: 61.4 µM (inactive)
[43]
  GI50: > 100 µM (inactive)
[44]
  GI50: > 100 µM (inactive)
[45]
  GI50: > 100 µM (inactive)
[46]
  GI50: 54.7 µM (inactive)
[47]
  GI50: > 100 µM (inactive)
[48]
  GI50: > 100 µM (inactive)
[50]
  GI50: 0.0515 µM (active)
[51]
  GI50: 10.5 µM (inactive)
[52]
  GI50: 48.8 µM (inactive)
[53]
  GI50: > 100 µM (inactive)
[54]
  GI50: > 100 µM (inactive)
[55]
  GI50: > 100 µM (inactive)
[56]
  GI50: > 100 µM (inactive)
[57]
  GI50: > 100 µM (inactive)
[58]
  GI50: > 100 µM (inactive)

## Cc1cc(C(C)(C)C)c(OCCCN2CCOCC2)c(C(C)(C)C)c1
[1]
  GI50: 17.3 µM (inactive)
[2]
  GI50: 18.9 µM (inactive)
[3]
  GI50: 17.5 µM (inactive)
[4]
  GI50: 17.4 µM (inactive)
[5]
  GI50: 17.5 µM (inactive)
[6]
  GI50: 19.1 µM (inactive)
[7]
  GI50: 16.6 µM (inactive)
[8]
  GI50: 15.7 µM (inactive)
[9]
  GI50: 17.1 µM (inactive)
[10]
  GI50: 17.9 µM (inactive)
[11]
  GI50: 16.7 µM (inactive)
[12]
  GI50: 16.7 µM (inactive)
[13]
  GI50: 18 µM
[14]
  GI50: 14.1 µM (inactive)
[15]
  GI50: 19.5 µM (inactive)
[16]
  GI50: 20.4 µM (inactive)
[17]
  GI50: 16.3 µM (inactive)
[18]
  GI50: 20.7 µM (inactive)
[19]
  GI50: 19.5 µM (inactive)
[20]
  GI50: 16.6 µM (inactive)
[21]
  GI50: 17.5 µM (inactive)
[22]
  GI50: 20.6 µM (inactive)
[23]
  GI50: 16.8 µM (inactive)
[24]
  GI50: 18.6 µM (inactive)
[25]
  GI50: 17.4 µM (inactive)
[26]
  GI50: 19.4 µM (inactive)
[27]
  GI50: 18.1 µM (inactive)
[28]
  GI50: 17.1 µM (inactive)
[29]
  GI50: 20.1 µM (inactive)
[31]
  GI50: 17.5 µM (inactive)
[32]
  GI50: 30.9 µM (inactive)
[59]
  GI50: 17.9 µM (inactive)
[33]
  GI50: 17 µM (inactive)
[34]
  GI50: 19.2 µM (inactive)
[35]
  GI50: 15.9 µM (inactive)
[36]
  GI50: 17.9 µM (inactive)
[37]
  GI50: 20.2 µM (inactive)
[38]
  GI50: 15.8 µM (inactive)
[39]
  GI50: 14.1 µM (inactive)
[40]
  GI50: 16 µM (inactive)
[41]
  GI50: 18.7 µM (inactive)
[42]
  GI50: 17.5 µM (inactive)
[43]
  GI50: 18.7 µM (inactive)
[44]
  GI50: 16.4 µM (inactive)
[45]
  GI50: 16.5 µM (inactive)
[46]
  GI50: 15.9 µM (inactive)
[47]
  GI50: 20 µM (inactive)
[48]
  GI50: 17.8 µM (inactive)
[49]
  GI50: 17.3 µM (inactive)
[50]
  GI50: 16.7 µM (inactive)
[51]
  GI50: 17.7 µM (inactive)
[52]
  GI50: 16.9 µM (inactive)
[53]
  GI50: 15.1 µM (inactive)
[54]
  GI50: 19.3 µM (inactive)
[55]
  GI50: 18 µM (inactive)
[56]
  GI50: 17.3 µM (inactive)
[57]
  GI50: 16 µM (inactive)
[58]
  GI50: 18.3 µM (inactive)

From ChEMBL document CHEMBL1201862, “PubChem BioAssay data set” (2004)
